Results on 4 compounds are retold here after paper PMC4704828, “Effect of Methamphetamine on Spectral Binding, Ligand Docking and Metabolism of Anti-HIV Drugs with CYP3A4” (PLoS ONE, 2016).

Broadly, the Kd is the equilibrium constant for the complex coming apart.

Series [1] addresses CYP3A4 (Homo sapiens, UniProt P08684). In words: biochemical. How it is done: Histidine tagged CYP3A4 enzyme was expressed in E. coli and purified on Ni-NTA agarose column as described previously. Briefly, CYP3A4 cDNA was introduced into TOPP3 strain of E. coli by transformation and the cells were plated on LB ampicillin plate with tetracycline. The next day, a viable and isolated colony was grown in TB media for 48 h to induce CYP3A4. The cultures were harvested by centrifugation and CYP3A4 was extracted from the membrane using detergent followed by ultracentrifugation. The supernatant was loaded on a Ni-NTA agarose column for further purification. The purified enzyme was dialyzed and final preparation was stored at -80^οC until use.
The spectral change was recorded by using a UV/Vis double beam spectrophotometer (6800 UV/VIS JENWAY spectrophotometer) as described earlier. Briefly, 0.5 μM of purified CYP3A4 enzyme was incubated with 2 ml of 0.1 M HEPES buffer for 3 min and distributed equally between the sample and reference cuvettes. Depending upon the solvent used to solubilize methamphetamine or PIs, equal quantities of either methanol or water was added into the reference cuvette with final volume of the external solvent <1%. Increasing concentrations of methamphetamine was added to the sample cuvette while the same volume of solvent was added into the reference cuvette and the spectral change was recorded. For experiments involving PIs, different concentrations of PIs were added into the sample cuvette and the spectral change was recorded with a 2 min interval between each addition. […] Type I ligands displace the heme water ligand, thus shifting the iron spin equilibrium towards the high-spin form resulting in a spectrum, which is characterized by an increase in the absorbance at 390 nm (high spin) and a decrease at 420 nm (low spin). Type II ligands containing nitrogen heterocycles replace the water ligand to stabilize the low-spin form resulting in a spectrum that is characterized by an increase in the spectrum at ~430 nm and a decrease at ~400 nm. The effect of methamphetamine on the spectral binding of PIs was determined by incubating the CYP3A4 enzyme with 100 μM of methamphetamine and titrating with increasing concentrations of PIs.
The KD and δAmax were determined by fitting the curve (absorbance vs. concentration) with hyperbolic equation using non-regression analysis in sigma plot 11 (Systat Software, San Jose, CA). The p-values were determined using One way ANOVA with Dunnet’s post-hoc test and values <0.05 were considered statistically significant.

The subject of series [2] is CYP3A4. To be noted: HLMs; for decrease in formation of hydroxy ritonavir: substrate ritonavir 2 μM. As for the experimental part: Briefly, the metabolite formations were assessed in incubation mixtures (0.5 mL) containing 100 mM phosphate buffer (pH 7.4), HLMs (0.1 mg/mL), and 5 mM Mgcl2 [13, 14]. The incubation mixtures were pre-incubated with six different concentrations of Meth ranging from 3 μM to 1000 μM for 10 min, followed by the addition of 5 μl stock solution of PI. The entire mixture was incubated in water bath at 37°C for 15 min. […] Later, the reactions were initiated upon the addition of 100 μl of 25 mM NADPH (final concentration of 5 mM) solution to each of the tube and incubated in water bath at 37°C for 60 min. […] Then, the tubes were vortexed and centrifuged at 500 g for 10 min and supernatant was transferred into vials for analysis by LC-MS/MS.
Standard curves for each analyte with IS were generated in blank HLMs incubation mixture as described above. The carry over test was performed by injecting an extra blank following the injection of upper limit of quantitation (ULOQ) of the standard curve with an IS. The LC-MS/MS methods were developed for each analyte along with its metabolite using 3200 QTRAP LC-MS/MS system, AB Sciex. […] (Fig 1, Table 1). A source temperature of 500°C, ion spray voltage of 5500 V, curtain gas of 20, GS 1 & 2 of 50, and dwell time of 200 msec were used for the determination of all analytes. The MRM method parameters such as declustering potential (DP), entrance potential (EP), collision energy (CE), and collision cell exit potential (CXP), were listed in the Table 1 along with the MRM transitions.
All the analytes were separated on reverse phase XTerra ® MS C18 column (4.6X50mm, i.d, 3.5 μm) using a Shimadzu LC-20AD HPLC system (CA, USA). A binary gradient elution method comprising of mobile phases (acetonitrile with 0.1% formic acid and water with 0.1% formic acid) with a flow rate of 0.5 mL/min was employed. […] Data acquisition and analyses were performed using the Analyst 1.4.2 software package (Applied Biosystems, Foster City, CA, USA).

Each structure is given as a SMILES string. Like-named read-outs stand apart in the source and are kept apart here.

Chain of CYP3A4 (Homo sapiens, UniProt P08684) (P08684 whole entry): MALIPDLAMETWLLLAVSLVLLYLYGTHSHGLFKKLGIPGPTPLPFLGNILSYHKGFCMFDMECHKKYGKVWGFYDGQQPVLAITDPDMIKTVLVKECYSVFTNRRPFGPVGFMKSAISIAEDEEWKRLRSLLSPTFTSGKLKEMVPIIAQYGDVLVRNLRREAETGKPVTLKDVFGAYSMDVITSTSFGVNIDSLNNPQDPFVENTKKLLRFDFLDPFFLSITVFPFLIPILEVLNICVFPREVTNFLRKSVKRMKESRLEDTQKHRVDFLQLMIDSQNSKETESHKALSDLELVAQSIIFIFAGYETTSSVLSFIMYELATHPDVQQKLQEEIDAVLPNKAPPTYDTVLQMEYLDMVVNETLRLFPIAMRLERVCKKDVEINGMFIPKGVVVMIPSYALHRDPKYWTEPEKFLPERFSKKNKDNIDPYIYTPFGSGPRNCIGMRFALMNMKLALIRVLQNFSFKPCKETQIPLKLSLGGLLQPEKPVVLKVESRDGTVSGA

`Cc1c(O)cccc1C(=O)N[C@@H](CSc1ccccc1)[C@H](O)CN1C[C@H]2CCCC[C@H]2C[C@H]1C(=O)NC(C)(C)C` [Nelfinavir] registered a δAmax at CYP3A4 [1] (human) of 0.0068 ± 0.0001.
Take `CCC[C@@]1(CCc2ccccc2)CC(O)=C([C@H](CC)c2cccc(NS(=O)(=O)c3ccc(C(F)(F)F)cn3)c2)C(=O)O1` [Tipranavir]: the δAmax at CYP3A4 [1] (human) was 0.0050 ± 0.0005.
Still for that read-out and setting: with `COC(=O)N[C@H](C(=O)N[C@@H](Cc1ccccc1)[C@@H](O)CN(Cc1ccc(-c2ccccn2)cc1)NC(=O)[C@@H](NC(=O)OC)C(C)(C)C)C(C)(C)C` [Atazanavir] the figure was 0.0045 ± 0.0002.
For `CN[C@@H](C)Cc1ccccc1` [methamphetamine], the affinity on CYP3A4 [1] (KD, methamphetamine alone titrated with CYP3A4, hyperbolic fit), expressed as Kd, was 204 ± 18 µM. Besides, the “spectral transition (low to high spin) with CYP3A4” value on CYP3A4 [1] (at saturating concentration of methamphetamine) is recorded as “approximately 20%”. For the same compound, on CYP3A4 [1] (increase in absorbance at 390 nm, decrease at 418 nm), the “type of spectral change upon binding to CYP3A4” value is recorded as “type I”. The compound also registered a δAmax at CYP3A4 [1] (methamphetamine alone titrated with CYP3A4, hyperbolic fit) of 0.016±0.001. The “decrease in formation of hydroxy ritonavir” value in the series on CYP3A4 [2] (100 μM methamphetamine) was 23.3 ± 3.8%; in the series on CYP3A4 [2] (1000 μM methamphetamine) it was 46.2 ± 3.3%. Besides, in the series on CYP3A4 [2] (methamphetamine 3 μM to 1000 μM, substrate lopinavir 10 μM), the “effect on metabolism of lopinavir (lopinavir M1 formation)” value is “did not affect”. For the same compound, the “effect on metabolism of nelfinavir M8 (decrease in substrate concentration)” value in the series on CYP3A4 [2] (methamphetamine 3 μM to 1000 μM, substrate nelfinavir M-8 1 μM) is on record as “did not affect”.
